“Also recorded” adds a separate entry of the source.
How the values were obtained:
[1] = test system: cells
[2] = test system: HIV-1; assay: Syncytia formation in infectious cell center assay (HIV-1 infection); type: cell-based, HIV-1 (CEM-ss indicator cells)
Source text: FIG. 2 is a graph showing the effects of GAP 31, DAP 30 and DAP 32 on HIV-1 infection by inhibition of syncytia formation in an infectious cell center assay (ICC). Results represent average values of triplicates from two independent experiments. Triplicate wells of indicator cells containing the test compounds at each concentration without virus were also included for the determination of the cytotoxic and cytostatic activities of these anti-HIV proteins. Infectious cell centers (%ICC) are expressed in terms of Vn/Vo where Vn and Vo are average numbers of syncytia in the drug-treated and untreated samples respectively.
(§1) The anti-HIV activities of GAP 31, DAP 30, and DAP 32 were determined by microtiter syncytia formation in infectious cell center assay (Nara, P. L. et al., Nature 332:469-70 (1988)), viral core protein p24 expression (Nara, P. L. et al., AIDS Res. Human Retroviruses 3:283-302 (1987)), and viral-associated RT activity (Hoffman, A. D. et al., Virology 147:326-35 (1985)). […]
Freshly prepared indicator cells in culture medium at 5×10^4 in 100 μl were treated with 100 μl of SCRIP at various concentrations, for 90 min. […] Focal syncytium formation representing single infectious virion units was scored at day 5 by examination under an inverted microscope. […]

[3] = test system: HIV; conditions: literature; cited from earlier work
[4] = test system: CF1 mice; conditions: i.p.
[5] = test system: HIV-1; assay: Viral-associated reverse transcriptase (HIV-RT) activity in H9 cell cultures; type: cell-based, HIV-1 (H9 cells)
Experimental: (§2) FIG. 3 is a graph showing the effects of GAP 31, DAP 30 and DAP 32 on HIV-1 replication, measured by viral core antigen p24 expression and HIV-RT activity. p24 production was determined by RIA and expressed in ng/ml. Viral-RT activity was determined by the incorporation of [^3 H]dTTP into TCA-precipitable products and expressed as cpm×10^3 /ml. These values in control culture (without added plant proteins) were 2219 ng/ml and 846×10^3 cpm/ml, respectively, as determined in triplicates in two independent experiments. Results are normalized to values obtained in control cultures.
as §1
(§3) Assays of viral core protein p24 expression and HIV-RT activity were carried out in H9 cell cultures. […] The amount of p24 was measured by RIA and expressed in terms of ng/ml. HIV-RT activity was determined by the incorporation of [^3 H] labeled thymidine with poly(rA).p(dT)12-18 as primer-template and expressed in terms of cpm/ml.

[6] = test system: cells; conditions: literature; cited from earlier work
[7] = test system: ribosome (rabbit reticulocyte lysate system); assay: Ribosome-inactivating activity: cell-free translation of globin mRNA in rabbit reticulocyte lysate; type: biochemical
Experimental: FIG. 5 is a graph showing the ribosome-inactivating activity of GAP 31, […] and DAP 32, measured as in vitro translation of globin mRNA in a rabbit reticulocyte system. Inhibition of protein synthesis was determined by measuring incorporation of [^3 H]leucine into TCA-insoluble material as a function of drug concentration. Results are from two independent experiments each run in duplicate. Average control values for leucine incorporation without added anti-HIV protein is 65,000 cpm/μl. Results are shown as % of control plotted against concentration of the added anti-HIV protein.
Ribosome-inactivating activity was measured by cell-free protein biosynthesis in a rabbit reticulocyte lysate system. The reaction was carried out in a total volume of 25 μl containing 2 mM magnesium acetate, 80 mM potassium acetate, 2.5 mM spermidine, 34.5 mg/ml creatine phosphate, 26 mg/ml GTP, 250 mM HEPES buffer, 1 μCi of [3H] leucine and 1 μg of globin mRNA. Incubation was conducted at 37° C. for 30 min. The translation products were resolved by TLC in a solvent system of methanol/water/TCA/glacial acetic acid (30/50/10/10, V/V/W/V). The incorporation of [^3 H] labeled leucine into TCA precipitable product was measured by scintillation counting.

[8] = test system: H9 cells; assay: Cytotoxicity to uninfected H9 cells (cellular DNA and protein synthesis); type: cell-based
Experimental: FIG. 4 is a graph showing the cytotoxic activity of GAP 31, DAP 30 and DAP 32, measured as cellular incorporation of [^3 H] thymidine or leucine into TCA-insoluble material in pulse labeling experiments. H9 cells were seeded at 2×10^4 cells/well and cultures pulsed with 1 μCi (1 Ci=37 GBq) of label 8 hr prior to harvesting at day 4. DNA or protein synthesis were measured by scintillation counting of the incorporation of labelled precursors. Results are normalized to values obtained for controls cultures without added anti-HIV proteins. Control values for thymidine uptake was 201,000 cpm and for leucine was 61,000 cpm. Results are the average triplicate values in two independent experiments.
The cytotoxicities of the SCRIPs were measured by their effects on cellular DNA and protein syntheses in uninfected H9 cells. Target cells were grown in the absence and presence of various amounts of SCRIPs. The cultures were pulse labeled with 1 μCi of [^3 H] labeled thymidine or leucine for 8 hours prior to harvesting on day 4. Cellular incorporation of these labeled precursors into trichloroacetic acid (TCA) precipitable products was determined by scintillation counting. Cell viability was determined by trypan blue dye exclusion. Toxicity to intact animals was determined by intraperitoneal injection (i.p.) of the SCRIPs into mice. […]

[9] = test system: HIV-1; assay: Viral core protein p24 expression in H9 cell cultures (HIV-1 replication); type: cell-based, HIV-1 (H9 cells)
Experimental: as §2, §1, §3

Substance	toxicity (cytotoxicity) in words [1]	Inhibition of syncytium formation, ID50 [2] [nM]	anti-HIV activity [3]	In Vivo Toxicity, LD50 (range) [4] [mg/kg]	hepatic hyperplasia ([4]; 0.1-100 mg per 100 gm body weight every three days)	Inhibition of Reverse Transcriptase (HIV-RT activity), ID50 [5] [nM]	cytotoxicity [6]	Ribosome-inactivation, ID50 [7] [nM]	Cytotoxicity, ID50 [8] [nM]	Inhibition of p24 activity (expression), ID50 [9] [nM]
SAP-6: a SCRIP isolated from Saponaria officinalis	relatively toxic									
trichosanthin	toxic	0.34	reduced viral antigen expression in, and were selectively toxic to, HIV-infected cells	5 to 7	moderate hepatic hyperplasia	0.46	toxic; also recorded: cytotoxic side effects	3.7	340	0.37
